Laboratory results as given in patent US20020137929A1, “1 - (3-heterocyclylphenyl) isothiourea, -isourea, -guanidine and -amidine herbicidal agents” (Intellectual Property Department, BASF Aktiengesellschaft, priority 1998, published 2002).

What was measured:
[1] = tested on: TRZAWR (Wheat, Winter, cv Riband); test: Postemergence herbicidal evaluation; type: in vivo, Triticum aestivum; conditions: postemergence
In short: (§1)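 Scores (0–9) reflect plant stand, vigor, malformation, size, chlorosis and general appearance relative to control, read 4 to 5 weeks after treatment and averaged where tests were repeated. Application: about 0.0156–0.500 kg/ha sprayed at 40 psi onto two-week seedlings.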

CASOB (Sicklepod) = test: Preemergence herbicidal evaluation; type: in vivo, Cassia obtusifolia; conditions: preemergence, rated 4-5 weeks after treatment, 0-9 scale
In short: (§2)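 Test compound, dissolved in aqueous acetone, was sprayed over planted soil cups at an equivalent of about 0.0156 to 0.500 kg/ha; seeds had been mixed with potting soil. Greenhouse growth followed, with visual 0-9 scoring of injury at four to five weeks.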

AMBEL (Ragweed, Common) = test: Postemergence herbicidal evaluation; type: in vivo, Ambrosia artemisifolia; conditions: postemergence
In short: as §1

ECHCG (Barnyardgrass) [2] = test: Postemergence herbicidal evaluation; type: in vivo, Echinochloa crus-galli; conditions: postemergence
In short: as §1

ABUTH (Velvetleaf) = test: Postemergence herbicidal evaluation; type: in vivo, Abutilon theophrasti; conditions: postemergence
In short: as §1

[3] = tested on: GLXMAW (Soybean, Williams); test: Postemergence herbicidal evaluation; type: in vivo, Glycine max, (L.) Merr. cv Williams; conditions: postemergence
In short: as §1

SETVI (Foxtail, Green) = test: Postemergence herbicidal evaluation; type: in vivo, Setaria viridis; conditions: postemergence
In short: as §1

GALAP (Galium) = test: Preemergence herbicidal evaluation; type: in vivo, Galium aparine; conditions: preemergence, rated 4-5 weeks after treatment, 0-9 scale
In short: as §2

ZEAMX (Corn, Field) = test: Preemergence herbicidal evaluation; type: in vivo, Zea mays; conditions: preemergence, rated 4-5 weeks after treatment, 0-9 scale
In short: as §2

[4] = tested on: CHEAL (Lambsquarters, Common); test: Preemergence herbicidal evaluation; type: in vivo, Chenopodium album; conditions: preemergence, rated 4-5 weeks after treatment, 0-9 scale
In short: as §2

[5] = tested on: ECHORC (Watergrass (Calif.)); test: Postemergence weed control under flooded paddy conditions; type: in vivo, Echinochloa oryzoides; conditions: postemergence weeds, rated 3 to 4 weeks after treatment
In short: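 Injury ratings (0–9 scale covering stand, vigor, malformation, size, chlorosis and overall appearance versus control) were made three to four weeks after treatment. Test material, about 0.0313 to 0.500 kg/ha a.i. in 50/50 v/v aqueous/acetone, was added to flood water 1.5 to 3 cm deep over 3 to 5 cm weeds and 1.5 to 2.5 leaf rice.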

ECHCG (Barnyardgrass) [6] = test: Preemergence herbicidal evaluation; type: in vivo, Echinochloa crus-galli; conditions: preemergence, rated 4-5 weeks after treatment, 0-9 scale
In short: as §2

[7] = tested on: IPOHE (Morningglory, Ivyleaf); test: Preemergence herbicidal evaluation; type: in vivo, Ipomoea hederacea; conditions: preemergence, rated 4-5 weeks after treatment, 0-9 scale
In short: as §2

[8] = tested on: IPOHE (Morningglory, Ivyleaf); test: Postemergence herbicidal evaluation; type: in vivo, Ipomoea hederacea; conditions: postemergence
In short: as §1

Compound: C=CCN1C(=O)C(CC(=O)OC(C)C(=O)OCC)SC1=Nc1cc(-n2c(=O)ccn(C)c2=O)c(F)cc1Cl [Compound 94, 3-Allyl-2-{{2-chloro-5-[3,6-dihydro-3-methyl-2,6-dioxo-1(2H)-pyrimidinyl]-4-fluorophenyl}imino}-4-oxo-5-thiazolidineacetic acid, ester with ethyl lactate, (R,S)-]
- TRZAWR herbicidal rating ([1]; rate 0.0158 kg/ha): 6.0
- TRZAWR herbicidal rating ([1]; rate 0.0315 kg/ha): 9.0
- TRZAWR herbicidal rating ([1]; rate 0.0630 kg/ha): 8.0
- CASOB rating (CASOB (Sicklepod); 0.0156 kg/ha): 0.0
- CASOB rating (CASOB (Sicklepod); 0.0313 kg/ha): 0.0
- CASOB rating (CASOB (Sicklepod); 0.0625 kg/ha): 0.0
- CASOB rating (CASOB (Sicklepod); 0.1250 kg/ha): 0.0
- CASOB rating (CASOB (Sicklepod); 0.2500 kg/ha): 0.0
- AMBEL herbicidal rating (AMBEL (Ragweed, Common); rate 0.0158 kg/ha): 7.0
- AMBEL herbicidal rating (AMBEL (Ragweed, Common); rate 0.0315 kg/ha): 9.0
- AMBEL herbicidal rating (AMBEL (Ragweed, Common); rate 0.0630 kg/ha): 9.0
- ECHCG herbicidal rating (ECHCG (Barnyardgrass) [2]; rate 0.0158 kg/ha): 1.0
- ECHCG herbicidal rating (ECHCG (Barnyardgrass) [2]; rate 0.0315 kg/ha): 7.0
- ECHCG herbicidal rating (ECHCG (Barnyardgrass) [2]; rate 0.0630 kg/ha): 9.0
- ABUTH herbicidal rating (ABUTH (Velvetleaf); rate 0.0158 kg/ha): 9.0
- ABUTH herbicidal rating (ABUTH (Velvetleaf); rate 0.0315 kg/ha): 9.0
- ABUTH herbicidal rating (ABUTH (Velvetleaf); rate 0.0630 kg/ha): 9.0
- GLXMAW herbicidal rating ([3]; rate 0.0158 kg/ha): 9.0
- GLXMAW herbicidal rating ([3]; rate 0.0315 kg/ha): 9.0
- GLXMAW herbicidal rating ([3]; rate 0.0630 kg/ha): 9.0
- SETVI herbicidal rating (SETVI (Foxtail, Green); rate 0.0158 kg/ha): 9.0
- SETVI herbicidal rating (SETVI (Foxtail, Green); rate 0.0315 kg/ha): 9.0
- SETVI herbicidal rating (SETVI (Foxtail, Green); rate 0.0630 kg/ha): 9.0
- GALAP rating (GALAP (Galium); 0.0156 kg/ha): 0.0
- GALAP rating (GALAP (Galium); 0.0313 kg/ha): 0.0
- GALAP rating (GALAP (Galium); 0.0625 kg/ha): 0.0
- GALAP rating (GALAP (Galium); 0.1250 kg/ha): 3.0
- GALAP rating (GALAP (Galium); 0.2500 kg/ha): 9.0
- ZEAMX rating (ZEAMX (Corn, Field); 0.0156 kg/ha): 0.0
- ZEAMX rating (ZEAMX (Corn, Field); 0.0313 kg/ha): 0.0
- ZEAMX rating (ZEAMX (Corn, Field); 0.0625 kg/ha): 0.0
- ZEAMX rating (ZEAMX (Corn, Field); 0.1250 kg/ha): 0.0
- ZEAMX rating (ZEAMX (Corn, Field); 0.2500 kg/ha): 6.0
- CHEAL rating ([4]; 0.0156 kg/ha): 9.0
- CHEAL rating ([4]; 0.0313 kg/ha): 9.0
- CHEAL rating ([4]; 0.0625 kg/ha): 9.0
- CHEAL rating ([4]; 0.1250 kg/ha): 9.0
- CHEAL rating ([4]; 0.2500 kg/ha): 9.0
- Herbicidal rating ECHORC ([5]; Rate 0.0313 kg/ha): 0.0
- Herbicidal rating ECHORC ([5]; Rate 0.0625 kg/ha): 0.0
- Herbicidal rating ECHORC ([5]; Rate 0.1250 kg/ha): 2.0
- Herbicidal rating ECHORC ([5]; Rate 0.2500 kg/ha): 7.0
- ECHCG rating (ECHCG (Barnyardgrass) [6]; 0.0156 kg/ha): 0.0
- ECHCG rating (ECHCG (Barnyardgrass) [6]; 0.0313 kg/ha): 0.0
- ECHCG rating (ECHCG (Barnyardgrass) [6]; 0.0625 kg/ha): 0.0
- ECHCG rating (ECHCG (Barnyardgrass) [6]; 0.1250 kg/ha): 0.0
- ECHCG rating (ECHCG (Barnyardgrass) [6]; 0.2500 kg/ha): 0.0
- IPOHE rating ([7]; 0.0156 kg/ha): 0.0
- IPOHE rating ([7]; 0.0313 kg/ha): 0.0
- IPOHE rating ([7]; 0.0625 kg/ha): 0.0
- IPOHE rating ([7]; 0.1250 kg/ha): 9.0
- IPOHE rating ([7]; 0.2500 kg/ha): 9.0
- IPOHE herbicidal rating ([8]; rate 0.0158 kg/ha): 9.0
- IPOHE herbicidal rating ([8]; rate 0.0315 kg/ha): 9.0
- IPOHE herbicidal rating ([8]; rate 0.0630 kg/ha): 9.0
